Measurements as given in ChEMBL document CHEMBL1649222, “In vitro antibacterial activity of acyl-lysyl oligomers against Helicobacter pylori” (Antimicrob Agents Chemother, 2009).
≈ marks a conversion by molar mass, not a printed value. Blank lines part the entries; values can stand above or below the compound they belong to. Calls of active or inactive are those of the source. The rule behind the calls is not given here. Non-standard residues stand in square brackets, D forms with d. Residues, ends and D or L forms follow the SMILES beside them. *: point of attachment. Lauroyl = CCCCCCCCCCCC(=O)*; 12Ado = NCCCCCCCCCCCC(=O)O

How the values were obtained:
Helicobacter pylori [1] = test: Antimicrobial activity against Helicobacter pylori G27; format: functional
[2] = Toxicity in horse erythrocytes assessed as hemolytic activity at 0.625 to 40 uM; format: cell-based, Equus caballus; conditions: erythrocyte
Helicobacter pylori [3] = test: Bactericidal activity against Helicobacter pylori G27 at pH 6.9; format: functional
Helicobacter pylori [4] = test: Bactericidal activity against Helicobacter pylori G27 at 40 uM after 10 hrs; format: functional
[5] = Antimicrobial activity against Helicobacter pylori 26695; format: functional
Helicobacter pylori [6] = test: Bactericidal activity against Helicobacter pylori 7.13 at 40 uM after 10 hrs; format: functional, organism-based
Helicobacter pylori [7] = test: Bactericidal activity against Helicobacter pylori G27 preincubated at 60 degC for 1 hr; format: functional
Helicobacter pylori [8] = test: Antimicrobial activity against Helicobacter pylori 7.13 at 2 times MBC by time-kill analysis; format: functional
[9] = Toxicity in horse erythrocytes assessed as hemolytic activity at 80 uM; format: cell-based, Equus caballus; conditions: erythrocyte
Helicobacter pylori [10] = test: Antimicrobial activity against Helicobacter pylori 7.13 at MBC by time-kill analysis; format: functional
Helicobacter pylori [11] = test: Antimicrobial activity against Helicobacter pylori 7.13; format: functional
Helicobacter pylori [12] = test: Antimicrobial activity against Helicobacter pylori J99 at 2 times MBC by time-kill analysis; format: functional
Helicobacter pylori [13] = test: Antimicrobial activity against Helicobacter pylori G27 at 2 times MBC by time-kill analysis; format: functional
Helicobacter pylori [14] = test: Antimicrobial activity against Helicobacter pylori SS1; format: functional
Helicobacter pylori [15] = test: Bactericidal activity against Helicobacter pylori G27 preincubated at 4 degC for 1 hr; format: functional
Helicobacter pylori [16] = test: Bactericidal activity against Helicobacter pylori G27 preincubated at 55 degC for 1 hr; format: functional
Helicobacter pylori [17] = test: Bactericidal activity against Helicobacter pylori G27 preincubated at 95 degC for 1 hr; format: functional
Helicobacter pylori [18] = test: Bactericidal activity against Helicobacter pylori G27 preincubated at 50 degC for 1 hr; format: functional
Helicobacter pylori [19] = test: Bactericidal activity against Helicobacter pylori G27 at pH 4.5; format: functional
Helicobacter pylori [20] = test: Antimicrobial activity against Helicobacter pylori G27 at MBC by time-kill analysis; format: functional
Helicobacter pylori [21] = test: Bactericidal activity against Helicobacter pylori G27 preincubated at 37 degC for 1 hr; format: functional
Helicobacter pylori [22] = test: Antimicrobial activity against Helicobacter pylori J99; format: functional
Helicobacter pylori [23] = test: Bactericidal activity against Helicobacter pylori G27 preincubated at 42 degC for 1 hr; format: functional
Helicobacter pylori [24] = test: Antimicrobial activity against Helicobacter pylori HPAG1; format: functional
Helicobacter pylori [25] = test: Bactericidal activity against Helicobacter pylori J99 at 40 uM after 10 hrs; format: functional
Helicobacter pylori [26] = test: Antimicrobial activity against Helicobacter pylori J99 at MBC by time-kill analysis; format: functional

- MIC (Helicobacter pylori [1]): 25 µM (≈ 41.9 µg/mL)
Compound: CCCCCCCCCCCC(=O)N[C@@H](CCCCN)C(=O)NCCCCCCCC(=O)N[C@@H](CCCCN)C(=O)NCCCCCCCC(=O)N[C@@H](CCCCN)C(=O)NCCCCCCCC(=O)N[C@@H](CCCCN)C(=O)NCCCCCCCC(=O)N[C@@H](CCCCN)C(=O)NCCCCCCCC(=O)N[C@@H](CCCCN)C(N)=O
- MBC (Helicobacter pylori [1]): > 100 µM

- MIC (Helicobacter pylori [1]): 25 µM (≈ 55.3 µg/mL)
Compound: CCCCCCCCCCCC(=O)N[C@@H](CCCCN)C(=O)NCCCCCCCC(=O)N[C@@H](CCCCN)C(=O)NCCCCCCCC(=O)N[C@@H](CCCCN)C(=O)NCCCCCCCC(=O)N[C@@H](CCCCN)C(=O)NCCCCCCCC(=O)N[C@@H](CCCCN)C(=O)NCCCCCCCC(=O)N[C@@H](CCCCN)C(=O)NCCCCCCCC(=O)N[C@@H](CCCCN)C(=O)NCCCCCCCC(=O)N[C@@H](CCCCN)C(N)=O
- MBC (Helicobacter pylori [1]): > 100 µM

- MIC [5]: 25 µM (≈ 30.9 µg/mL)
- MIC (Helicobacter pylori [11]): < 9 µM
- MIC (Helicobacter pylori [14]): 25.5 µM (≈ 31.5 µg/mL)
- MIC (Helicobacter pylori [1]): 6.5 µM (≈ 8.03 µg/mL)
- MIC (Helicobacter pylori [22]): 10.5 µM (≈ 13 µg/mL)
- MIC (Helicobacter pylori [24]): 10.5 µM (≈ 13 µg/mL)
Compound: CCCCCCCCCCCC(=O)N[C@@H](CCCCN)C(=O)N[C@@H](CCCCN)C(=O)NCCCCCCCCCCCC(=O)N[C@@H](CCCCN)C(=O)N[C@@H](CCCCN)C(=O)NCCCCCCCCCCCC(=O)N[C@@H](CCCCN)C(N)=O (Lauroyl-KK[12Ado]KK[12Ado]K-NH2)
- Activity [2]: Non-toxic
- Activity (Helicobacter pylori [3]): Active
- Activity (Helicobacter pylori [4]): Active
- MBC [5]: 70 µM (≈ 86.4 µg/mL)
- Activity (Helicobacter pylori [6]): Active
- Activity (Helicobacter pylori [7]): Active
- Time (Helicobacter pylori [8]): 3.5 h
- Activity [9]: Toxic
- Time (Helicobacter pylori [10]): 6.1 h
- MBC (Helicobacter pylori [11]): 14.5 µM (≈ 17.9 µg/mL)
- Time (Helicobacter pylori [12]): 1.8 h
- Time (Helicobacter pylori [13]): 2.7 h
- MBC (Helicobacter pylori [14]): 45 µM (≈ 55.6 µg/mL)
- Activity (Helicobacter pylori [15]): Active
- Activity (Helicobacter pylori [16]): Active
- Activity (Helicobacter pylori [17]): Active
- MBC (Helicobacter pylori [1]): 15 µM (≈ 18.5 µg/mL)
- Activity (Helicobacter pylori [18]): Active
- Activity (Helicobacter pylori [19]): inactive
- Time (Helicobacter pylori [20]): 6.1 h
- Activity (Helicobacter pylori [21]): Active
- MBC (Helicobacter pylori [22]): 20 µM (≈ 24.7 µg/mL)
- Activity (Helicobacter pylori [23]): Active
- MBC (Helicobacter pylori [24]): 40 µM (≈ 49.4 µg/mL)
- Activity (Helicobacter pylori [25]): Active
- Time (Helicobacter pylori [26]): 3.8 h
